We go through 53 molecules from PubChem BioAssay AID1996.

Structures are written as SMILES. ≈ marks a conversion by molar mass, not a printed value. Bounds are passed on as bounds.

For the series the following is noted: buffer; pH 7.4; 200.0 µM.
A word on the solubility (kinetic): it is the concentration staying in solution when a stock, usually in DMSO, is diluted into the medium. For `O=C(/C=C/c1ccc([N+](=O)[O-])cc1)OCC(=O)c1ccc[nH]1`, the solubility (kinetic) is 3 µg/mL (≈ 9.99 µM).

Turning to `COc1cc(OC)c(NC(=O)c2csc(C)c2)cc1Cl`, the solubility (kinetic) was under 0.7 µg/mL.

For the molecule `CC(NC(=O)CN1C(=O)c2ccccc2C1=O)c1ccccc1` (stereo not drawn), the kinetic solubility is 8.4 µg/mL (≈ 27.2 µM).

In the case of `CSc1cccc(NC(=O)COC(=O)c2ccccn2)c1`, the kinetic solubility is over 45.4 µg/mL.

With `CC(=O)c1c(O)c2ccccc2n(C(C)C)c1=O`, the solubility (kinetic) is 29.7 µg/mL (≈ 121 µM).

For `CC(C)c1nc(SCC(=O)NC2CCCC2)c2ccccc2n1`, the kinetic solubility worked out at 6.1 µg/mL (≈ 18.5 µM). Against the preceding molecule, the solubility kinetic is about 4.9-fold lower.

In turn, `CC(=O)c1ccc(S(=O)(=O)NC2CC2)cc1` returned a solubility (kinetic) of 26.1 µg/mL (≈ 109 µM).

Turning to `CC1=C(C(=O)OCC2CCCCC2)C(c2ccccc2F)NC(=O)N1` (stereo not drawn), the kinetic solubility is 0.6 µg/mL (≈ 1.73 µM).

`Cc1ccc(NC(=O)CC2(CC(=O)O)CCCC2)cc1` returned a kinetic solubility of over 41.3 µg/mL.

In the case of `CCc1ccc(/C=C2\SC(N3CCOCC3)=NC2=O)cc1`, the solubility (kinetic) stood at 24.9 µg/mL (≈ 82.3 µM).

Take `CN(n1cnc2ccccc2c1=O)S(C)(=O)=O`: the solubility (kinetic) was over 38 µg/mL.

The molecule `O=C(Nc1ccc(F)cc1)c1cccnc1` came in with a kinetic solubility of over 32.4 µg/mL.

Molecule `Cc1cc(N2C(=O)C(O)=C(C(=O)c3cccs3)C2c2ccc(F)cc2)no1` (stereo not drawn) showed a solubility (kinetic) of over 57.7 µg/mL.

The molecule `Cc1cc(C(=O)NC2CCCCCC2)c2ccccc2n1` returned a solubility (kinetic) of 24.2 µg/mL (≈ 85.7 µM).

With `COc1ccc(CCn2c(C)c(C(C)=O)c(C(C)=O)c2C)cc1OC`, the solubility (kinetic) is over 51.5 µg/mL.

As to `CCC(=O)OCC(=O)Nc1ncc(C(F)(F)F)cc1Cl`, the solubility (kinetic) was over 46.6 µg/mL.

With `COc1ccc(CCNC(=S)Nc2ccccc2)cc1`, the solubility (kinetic) is 41.1 µg/mL (≈ 144 µM).

Consider `O=C(CNC(=O)c1ccccc1F)NCCc1ccc(Cl)cc1`, for which the solubility (kinetic) amounted to 47.5 µg/mL (≈ 142 µM).

`O=c1[nH]cc(S(=O)(=O)NCc2ccccc2)c(=O)[nH]1`: the solubility (kinetic) was over 42.2 µg/mL.

In turn, `O=C(NC1=NCCS1)C1CCCCC1` gave a solubility (kinetic) of over 31.8 µg/mL.

In the case of `CC1=CC(=O)C(C(C)C)=C/C1=N/OS(=O)(=O)c1ccccc1`, the solubility (kinetic) came to 7.9 µg/mL (≈ 24.7 µM).

`COC(=O)[C@H](CC(C)C)NC(=O)NCc1ccc(Cl)cc1` had a kinetic solubility of 42.5 µg/mL (≈ 136 µM).

As for `CC(=O)Oc1ccc(-c2cccc(C(=O)N3CCCCC3)c2)cc1`, the solubility (kinetic) is 40.8 µg/mL (≈ 126 µM). This solubility kinetic and that of the molecule before are within 1.5-fold of each other.

On to `CCOC(=O)C(=CNc1ccc(N2CCOCC2)cc1)C(=O)OCC`, for which the solubility (kinetic) is over 52.3 µg/mL.

In turn, `Cc1csc(NC(=O)c2ccncc2)n1` registered a kinetic solubility of 17.9 µg/mL (≈ 81.6 µM).

Consider `CCCc1nnc(NC(=O)CS(=O)(=O)c2ccccc2)s1`, for which the solubility (kinetic) was over 48.8 µg/mL.

The molecule `Cc1ccc(C(=O)Nc2cccc(C(=O)NC3CCCCC3)c2)cc1` gave a solubility (kinetic) of under 0.4 µg/mL.

For `CC(C1CC1)N(Cc1ccccc1)C(=O)NC(=O)c1ccccc1` (stereo not drawn), the solubility (kinetic) was found to be 46.1 µg/mL (≈ 143 µM).

Molecule `OCCN1c2ccccc2CCc2ccccc21` yielded a solubility (kinetic) of 21.5 µg/mL (≈ 89.8 µM). This solubility kinetic lies about 2.1-fold lower than the previous one.

Turning to `O=C(COC(=O)c1cccs1)Nc1cccc(Cl)c1`, the solubility (kinetic) stood at 7.6 µg/mL (≈ 25.7 µM).

Molecule `CN(C)C(=O)CSc1ncccc1-c1nc2ccccc2[nH]1` had a kinetic solubility of 42.6 µg/mL (≈ 136 µM).

In turn, `CN1CCN(c2c(/C=N/O)c3ccccc3n2C)CC1` displayed a kinetic solubility of over 40.9 µg/mL.

As to `COCc1cc(C)nc(SCc2ccc(Br)cc2)c1C#N`, the kinetic solubility is under 0.4 µg/mL.

Consider `Cc1cccc(CC(=O)NC2CCN(C)CC2)c1`, for which the solubility (kinetic) was over 37 µg/mL.

Molecule `Cc1cc(C)cc(N2CCCn3c2nc2c3c(=O)[nH]c(=O)n2C)c1` came in with a kinetic solubility of 3.3 µg/mL (≈ 10.1 µM).

`COc1ccc(C(=O)Nc2ccc(NC(=O)Cc3ccccc3)cn2)cc1` yielded a solubility (kinetic) of 0.4 µg/mL (≈ 1.11 µM).

For the molecule `Cc1ccc(OCCN2CCCC2)cc1.O=C(O)C(=O)O`, the kinetic solubility is over 44.3 µg/mL.

`O=C1CCCC2=C1C(c1ccsc1)CC(=O)N2c1ccccc1F` (stereo not drawn): the kinetic solubility was over 51.2 µg/mL.

As to `Cc1cc(C)c(C#N)c(Nc2cccc(C)c2C)n1`, the solubility (kinetic) was 1 µg/mL (≈ 3.98 µM).

With `CCOc1ccc(CN(C)C(=O)Cc2c[nH]c3ccccc23)cc1`, the kinetic solubility was determined as 42 µg/mL (≈ 130 µM).

Consider `O=C(c1cccs1)N1CCN(c2cccc(Cl)c2)CC1`, for which the solubility (kinetic) stood at 26.3 µg/mL (≈ 85.7 µM).

Take `CC(=O)c1c(C)[nH]c(C(=O)COC(=O)c2nccnc2N)c1C`: the kinetic solubility was 11.9 µg/mL (≈ 37.6 µM).

`Nc1nc2ccc(C(=O)Nc3ccc(N4CCOCC4)cc3)cc2s1` returned a solubility (kinetic) of 8.7 µg/mL (≈ 24.5 µM).

`COc1cccc(NC(=O)/C=C/c2ccco2)c1` came in with a kinetic solubility of over 36.5 µg/mL.

In turn, `CCCCN1C(C)=CC(=C2C(=O)c3ccccc3C2=O)C=C1C` registered a kinetic solubility of under 0.7 µg/mL.

Molecule `O=C(CSc1ncnc2ccccc12)NCCc1ccccc1` had a solubility (kinetic) of over 48.5 µg/mL.

In the case of `COc1ccccc1NC(=O)c1c(C)nc2ccccc2c1C(=O)O`, the kinetic solubility was over 50.5 µg/mL.

Molecule `COc1ccccc1CNC(=O)c1ccncc1` came in with a kinetic solubility of over 36.3 µg/mL.

In turn, `CCCNC(=O)Cn1nc(C(F)(F)F)c2c1CCC2` showed a solubility (kinetic) of over 41.3 µg/mL.

`O=C(COc1ccc(Cl)cc1)OCC(=O)N1CCOCC1`: the kinetic solubility was over 47.1 µg/mL.

Turning to `Nc1cnn(C2OC(CO)C(O)C2O)c(=O)n1` (stereo not drawn), the solubility (kinetic) was over 36.6 µg/mL.

For the molecule `CN1CCN(C(=O)c2cc3cc(Cl)ccc3[nH]2)CC1.Cl`, the kinetic solubility was over 47.1 µg/mL.

`COC(=O)c1cc(OC)nc(OC)c1` gave a solubility (kinetic) of 3 µg/mL (≈ 15.2 µM).
